Consider 21 molecules from patent US20120015957A1, “PIPERAZINYL DERIVATIVES USEFUL AS MODULATORS OF THE NEUROPEPTIDE Y2 RECEPTOR” (priority 2007, published 2012).

Assay [1] concerns the target T1, NPY Y2 receptor (Homo sapiens, UniProt P49146).
T1 construct: endogenous in cells; host or cells: KAN-Ts cells (membrane preparation)
T1 sequence (P49146 1-381): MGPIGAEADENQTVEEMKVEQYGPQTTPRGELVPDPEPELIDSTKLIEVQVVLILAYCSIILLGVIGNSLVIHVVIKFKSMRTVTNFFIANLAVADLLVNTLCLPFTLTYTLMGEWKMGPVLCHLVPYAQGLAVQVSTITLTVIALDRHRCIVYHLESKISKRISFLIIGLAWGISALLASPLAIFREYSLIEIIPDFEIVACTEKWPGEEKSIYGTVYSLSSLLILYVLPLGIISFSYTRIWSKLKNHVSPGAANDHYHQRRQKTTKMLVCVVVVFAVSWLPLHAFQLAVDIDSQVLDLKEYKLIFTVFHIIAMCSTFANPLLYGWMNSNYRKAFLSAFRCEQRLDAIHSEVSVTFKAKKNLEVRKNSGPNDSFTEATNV
Description: Neuropeptide Y2 radioligand binding assay ([125I]PYY, KAN-Ts cell membranes). Particulars: membranes of KAN-Ts cells endogenously expressing Y2 receptors; [125I]PYY 80 pM; 1 h at rt; read-out: IC50 (μM), NPY Y2 binding. Summed up:
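Membranes from KAN-Ts cells (endogenous Y2) incubated 1 h at rt with 80 pM [125I]PYY ± compound in HEPES/NaCl binding buffer, then filtered and counted. Nonspecific binding defined with […]. IC50 from sigmoidal fits; apparent K = IC50/(1+C/KD).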

Assay [2] addresses T1, NPY Y2 receptor. Description: Neuropeptide Y2 pKB assay (FLIPR, KAN-Ts cells stably expressing chimeric G proteins). Particulars: apparent pKB, FLIPR calcium, KAN-Ts cells with chimeric G proteins; modified Cheng-Prusoff correction. Type of assay: cell-based. On the procedure: The assay was performed using the fluorimetric imaging plate reader (FLIPR) format as described in Dautzenberg, F. M., Biochemical Pharmacology 2005, 69, 1493.
KAN-Ts cells stably expressing chimeric G proteins were seeded at a density of 100,000 cells into poly-d-lysine coated 384-well blackwall, clear-bottom microtiter plates (Corning, N.Y.). One day later, the medium was removed and 50 μl loading medium DMEM high glucose, without serum, supplemented with 10 mM HEPES-acid, 0.1% BSA, 5 mM probenecid and 2 μM Fluo-3AM was added. Cells were loaded for 1 h at 37° C., washed twice with 50 μl assay buffer (5 mM HEPES-acid, 140 mM NaCl, 1 mM MgCl2, 5 mM KCl, 10 mM glucose) and then 30 μl assay buffer was added. Cells were further pre-incubated at room temperature before adding agonists or agonists plus antagonists in 20 μl assay buffer and then measured on a T-channel fluorometric imaging plate reader (FLIPR, Molecular Devices, Sunnyvale, Calif.). Antagonistic potency values were converted to apparent pKB values using a modified Cheng-Prusoff correction. Apparent pKB was calculated as pKB=−log IC50/1+[conc agonist/EC50].

SMILES strings stand for the structures. Bounds are passed on as bounds.

What is called IC50 is the concentration that inhibits the measured activity by half. Regarding `CCN(CC)C(=O)C(c1ccccc1)N1CCN(c2ccc(-c3nc(C(C)C)no3)cc2C#N)CC1` (stereo not shown) [Compound 218, 2-{4-[2-Cyano-4-(3-isopropyl-[1,2,4]oxadiazol-5-yl)-phenyl]-piperazin-1-yl}-N,N-diethyl-2-phenyl-acetamide], the IC50 at NPY Y2 receptor [1] turned out to be 0.011 µM. Also, the Kb at NPY Y2 receptor [2] was 12.6 nM.
The like results for `CCN(CC)C(=O)C(c1ccccc1)N1CCN(c2ccc(-c3noc(C(C)C)n3)cc2F)CC1` (stereo not shown) [Compound 69, N,N-Diethyl-2-{4-[2-fluoro-4-(5-isopropyl-[1,2,4]oxadiazol-3-yl)-phenyl]-piperazin-1-yl}-2-phenyl-acetamide] were, in that order, 0.13 µM and 50.1 nM.
With `CCN(CC)C(=O)C(c1ccccc1)N1CCN(c2ccc(-c3nc(C)no3)cc2C#N)CC1` (stereo not shown) [Compound 217, 2-{4-[2-Cyano-4-(3-methyl-[1,2,4]oxadiazol-5-yl)-phenyl]-piperazin-1-yl}-N,N-diethyl-2-phenyl-acetamide], on NPY Y2 receptor [1], the IC50 amounted to 0.023 µM. The Kb at NPY Y2 receptor [2] was 23.4 nM.
On the same counts, the results for `CCN(CC)C(=O)C(c1ccccc1)N1CCN(c2ccc(-c3nc(C)no3)cc2Br)CC1` (stereo not shown) [Compound 203, 2-{4-[2-Bromo-4-(3-methyl-[1,2,4]oxadiazol-5-yl)-phenyl]-piperazin-1-yl}-N,N-diethyl-2-phenyl-acetamide] are 0.15 µM and 200 nM.
Turning to `CCN(CC)C(=O)C(c1ccccc1)N1CCN(c2ccc(-c3noc(C)n3)cc2F)CC1` (stereo not shown) [Compound 67, N,N-Diethyl-2-{4-[2-fluoro-4-(5-methyl-[1,2,4]oxadiazol-3-yl)-phenyl]-piperazin-1-yl}-2-phenyl-acetamide], at NPY Y2 receptor [1], the IC50 is 0.18 µM. Besides, at NPY Y2 receptor [2], the Kb was 200 nM.
The like results for `CCN(CC)C(=O)C(c1ccccc1)N1CCN(c2ccc(-c3nc(C)no3)cc2F)CC1` (stereo not shown) [Compound 119, N,N-Diethyl-2-{4-[2-fluoro-4-(3-methyl-[1,2,4]oxadiazol-5-yl)-phenyl]-piperazin-1-yl}-2-phenyl-acetamide] were, in that order, 0.085 µM and 89.1 nM.
The like results for `CCN(CC)C(=O)C(c1cccc(F)c1)N1CCN(c2ccc(-c3nc(C)no3)cc2C#N)CC1` (stereo not shown) [Compound 263, 2-{4-[2-Cyano-4-(3-methyl-[1,2,4]oxadiazol-5-yl)-phenyl]-piperazin-1-yl}-N,N-diethyl-2-(3-fluoro-phenyl)-acetamide] were, in that order, 0.035 µM and 20 nM.
As for `CCN(CC)C(=O)C(c1ccccc1)N1CCN(c2ccc(-c3noc(C(N)=O)n3)cc2F)CC1` (stereo not shown) [Compound 144, 3-{4-[4-(Diethylcarbamoyl-phenyl-methyl)-piperazin-1-yl]-3-fluorophenyl}-[1,2,4]oxadiazole-5-carboxylic acid amide], at NPY Y2 receptor [1], the IC50 worked out at 1.1 µM.
For `CCN(CC)C(=O)C(c1ccccc1)N1CCN(c2ccc(-c3ccccc3OC)cc2F)CC1` (stereo not shown) [Compound 214, N,N-Diethyl-2-[4-(3-fluoro-2′-methoxy-biphenyl-4-yl)-piperazin-1-yl]-2-phenyl-acetamide], the IC50 on NPY Y2 receptor [1] worked out at 0.078 µM.
The same measure, in the same setting: the figure for `CCN(CC)C(=O)C(c1ccccc1)N1CCN(c2ccc(-c3ccc[nH]3)cc2F)CC1` (stereo not shown) [Compound 188, N,N-Diethyl-2-{4-[2-fluoro-4-(1H-pyrrol-2-yl)-phenyl]-piperazin-1-yl}-2-phenyl-acetamide] is 0.63 µM; for `CCN(CC)C(=O)C(c1ccccc1)N1CCN(c2ccc(-c3nc(C(C)C)no3)cc2F)CC1` (stereo not shown) [Compound 80, N,N-Diethyl-2-{4-[2-fluoro-4-(3-isopropyl-[1,2,4]oxadiazol-5-yl)-phenyl]-piperazin-1-yl}-2-phenyl-acetamide] it is 0.041 µM.
Still for that read-out and setting: as for `CCN(CC)C(=O)C(c1ccccc1)N1CCN(c2ccc(-c3noc(C(=O)O)n3)cc2F)CC1` (stereo not shown) [Compound 151, 3-{4-[4-(Diethylcarbamoyl-phenyl-methyl)-piperazin-1-yl]-3-fluorophenyl}-[1,2,4]oxadiazole-5-carboxylic acid], the figure is more than 10 µM.
As to `CCN(C)C(=O)C(c1ccccc1)N1CCN(c2ccc(-c3nc(C(C)C)no3)cc2F)CC1` (stereo not shown) [Compound 184, N-Ethyl-2-{4-[2-fluoro-4-(3-isopropyl-[1,2,4]oxadiazol-5-yl)-phenyl]-piperazin-1-yl}-N-methyl-2-phenyl-acetamide], the IC50 at NPY Y2 receptor [1] came out at 2.2 µM.
Same read-out and setting: the figure for `CCOC(=O)C(C)(c1ccccc1)N1CCN(c2ccc(-c3nc(C)no3)cc2F)CC1` (stereo not shown) [Compound 226, 2-{4-[2-Fluoro-4-(3-methyl-[1,2,4]oxadiazol-5-yl)-phenyl]-piperazin-1-yl}-2-phenyl-propionic acid ethyl ester] is 1 µM.
With `CCN(CC)C(=O)C(c1ccccc1)N1CCN(c2ccc(-c3cccnc3)cc2F)CC1` (stereo not shown) [Compound 202, N,N-Diethyl-2-[4-(2-fluoro-4-pyridin-3-yl-phenyl)-piperazin-1-yl]-2-phenyl-acetamide], the IC50 on NPY Y2 receptor [1] was determined as 1 µM.
Same read-out and setting: the figure for `COC(=O)C(c1ccccc1)N1CCN(c2ccc(-c3nc(C)no3)cc2F)CC1` (stereo not shown) [Compound 183, {4-[2-Fluoro-4-(3-methyl-[1,2,4]oxadiazol-5-yl)-phenyl]-piperazin-1-yl}-phenyl-acetic acid methyl ester] is 3.1 µM; for `CCN(CC)C(=O)C(c1ccccc1)N1CCN(c2ccc(C3=NN(C(C)C)C(=O)C3)cc2F)CC1` (stereo not shown) [Compound 191, N,N-Diethyl-2-{4-[2-fluoro-4-(1-isopropyl-5-oxo-4,5-dihydro-1H-pyrazol-3-yl)-phenyl]-piperazin-1-yl}-2-phenyl-acetamide] it is 0.34 µM.
Same read-out and setting: as for `CCN(CC)C(=O)C(c1ccccc1)N1CCN(c2ccc(-c3nc(C(C)C)nn3C)cc2F)CC1` (stereo not shown) [Compound 220, N,N-Diethyl-2-{4-[2-fluoro-4-(5-isopropyl-2-methyl-2H-[1,2,4]triazol-3-yl)-phenyl]-piperazin-1-yl}-2-phenyl-acetamide], the figure is 1 µM.
Same read-out and setting: as for `CCN(CC)C(=O)C(c1ccccc1)N1CCN(c2ccc(-c3nc(C(C)C)n(C)n3)cc2F)CC1` (stereo not shown) [Compound 216, N,N-Diethyl-2-{4-[2-fluoro-4-(5-isopropyl-1-methyl-1H-[1,2,4]triazol-3-yl)-phenyl]-piperazin-1-yl}-2-phenyl-acetamide], the figure is 1.95 µM.
Take `Cc1noc(-c2ccc(N3CCN(C(C(=O)N(C)C)c4ccccc4)CC3)c(F)c2)n1` (stereo not shown) [Compound 182, 2-{4-[2-Fluoro-4-(3-methyl-[1,2,4]oxadiazol-5-yl)-phenyl]-piperazin-1-yl}-N,N-dimethyl-2-phenyl-acetamide]: the IC50 on NPY Y2 receptor [1] amounted to 0.56 µM.
On the same count and under the same terms, as for `CCc1nc(-c2ccc(N3CCN(C(C(=O)N(CC)CC)c4ccccc4)CC3)c(F)c2)no1` (stereo not shown) [Compound 3, N,N-Diethyl-2-{4-[4-(5-ethyl-[1,2,4]oxadiazol-3-yl)-2-fluoro-phenyl]-piperazin-1-yl}-2-phenyl-acetamide], the figure is 0.24 µM.
